Measurements: US8741899B2, “(4-chloro-2-fluoro-N-(2-fluorophenyl)-5-[(8aR)-hexahydropyrrolo-[1,2-a]pyrazin-2(1H)-ylcarbonyl]-benzenesulfonamide, and pharmaceutically acceptable salts thereof” (AbbVie Inc., priority 2009, dated 2014)

What follows are compounds tested against T1, Human Cav3.2 Channels (Homo sapiens, UniProt O95180) (assay: Electrophysiologic (whole-cell patch-clamp) assessment of calcium channel activity in HEK293 cells stably expressing hCav3.2). Details: −77 mV, geometric mean, read-out: Human Cav3.2 −77 mV IC50 (μM) GeoMean.
T1 construct: expressed in transfected cells
T1 sequence (O95180 whole entry): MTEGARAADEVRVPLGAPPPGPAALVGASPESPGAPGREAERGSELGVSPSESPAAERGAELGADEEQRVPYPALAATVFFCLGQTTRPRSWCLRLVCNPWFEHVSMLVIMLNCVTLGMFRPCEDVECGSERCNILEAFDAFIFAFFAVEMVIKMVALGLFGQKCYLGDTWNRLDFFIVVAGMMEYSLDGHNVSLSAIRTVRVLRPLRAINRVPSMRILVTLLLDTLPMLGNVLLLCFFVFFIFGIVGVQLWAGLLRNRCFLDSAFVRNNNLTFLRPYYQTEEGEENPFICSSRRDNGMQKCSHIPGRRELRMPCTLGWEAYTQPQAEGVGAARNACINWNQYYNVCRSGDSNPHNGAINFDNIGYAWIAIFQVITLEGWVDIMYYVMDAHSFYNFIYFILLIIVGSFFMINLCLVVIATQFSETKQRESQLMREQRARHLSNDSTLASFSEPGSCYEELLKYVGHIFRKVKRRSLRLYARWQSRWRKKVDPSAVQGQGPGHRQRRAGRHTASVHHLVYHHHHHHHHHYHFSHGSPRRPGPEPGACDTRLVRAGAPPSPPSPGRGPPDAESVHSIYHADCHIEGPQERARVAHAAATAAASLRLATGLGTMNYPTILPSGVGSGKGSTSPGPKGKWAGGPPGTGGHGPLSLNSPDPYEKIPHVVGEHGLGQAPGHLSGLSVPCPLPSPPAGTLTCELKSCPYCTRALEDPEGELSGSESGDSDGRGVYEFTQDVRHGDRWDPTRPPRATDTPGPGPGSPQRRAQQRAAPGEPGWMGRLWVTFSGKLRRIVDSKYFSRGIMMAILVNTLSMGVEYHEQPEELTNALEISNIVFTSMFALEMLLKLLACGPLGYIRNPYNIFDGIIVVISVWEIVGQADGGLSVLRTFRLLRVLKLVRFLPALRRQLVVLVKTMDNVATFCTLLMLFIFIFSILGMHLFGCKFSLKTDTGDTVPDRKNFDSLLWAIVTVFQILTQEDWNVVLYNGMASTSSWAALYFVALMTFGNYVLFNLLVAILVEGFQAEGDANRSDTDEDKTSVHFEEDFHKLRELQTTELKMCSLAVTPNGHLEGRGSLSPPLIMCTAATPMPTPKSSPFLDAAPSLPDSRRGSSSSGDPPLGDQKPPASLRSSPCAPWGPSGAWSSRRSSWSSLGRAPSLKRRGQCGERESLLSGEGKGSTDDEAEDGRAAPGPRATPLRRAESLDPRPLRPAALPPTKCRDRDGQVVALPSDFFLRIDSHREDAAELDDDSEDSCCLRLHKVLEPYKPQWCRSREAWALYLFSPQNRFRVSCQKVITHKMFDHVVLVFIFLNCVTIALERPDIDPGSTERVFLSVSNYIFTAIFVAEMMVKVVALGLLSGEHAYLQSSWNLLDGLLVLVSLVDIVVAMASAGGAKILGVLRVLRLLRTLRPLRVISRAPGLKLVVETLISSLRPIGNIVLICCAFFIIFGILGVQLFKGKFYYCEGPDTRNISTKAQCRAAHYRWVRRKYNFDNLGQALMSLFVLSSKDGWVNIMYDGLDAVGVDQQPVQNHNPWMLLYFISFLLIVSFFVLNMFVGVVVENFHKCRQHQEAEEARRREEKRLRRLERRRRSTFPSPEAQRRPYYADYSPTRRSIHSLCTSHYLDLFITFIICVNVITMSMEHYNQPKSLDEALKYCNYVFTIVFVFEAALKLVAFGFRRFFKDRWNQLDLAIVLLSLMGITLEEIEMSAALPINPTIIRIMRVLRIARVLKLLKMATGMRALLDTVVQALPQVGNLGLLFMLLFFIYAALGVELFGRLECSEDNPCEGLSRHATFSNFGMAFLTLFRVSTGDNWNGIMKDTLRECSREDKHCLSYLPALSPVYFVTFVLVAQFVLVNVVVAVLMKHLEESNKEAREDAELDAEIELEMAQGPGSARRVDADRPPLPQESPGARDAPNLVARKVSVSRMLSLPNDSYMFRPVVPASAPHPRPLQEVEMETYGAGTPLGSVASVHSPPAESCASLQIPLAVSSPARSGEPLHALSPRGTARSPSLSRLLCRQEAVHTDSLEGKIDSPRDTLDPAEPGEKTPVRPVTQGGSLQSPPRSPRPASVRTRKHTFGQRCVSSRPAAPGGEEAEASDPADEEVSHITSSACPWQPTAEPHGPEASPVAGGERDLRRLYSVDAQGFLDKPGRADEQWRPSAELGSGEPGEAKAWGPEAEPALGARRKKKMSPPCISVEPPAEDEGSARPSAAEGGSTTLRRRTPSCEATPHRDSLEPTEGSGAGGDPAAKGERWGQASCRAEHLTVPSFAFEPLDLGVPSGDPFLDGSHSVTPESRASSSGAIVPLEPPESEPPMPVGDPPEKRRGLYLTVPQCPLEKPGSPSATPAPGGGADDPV
Format: cell-based
Method: (i) In Vitro Methods—Electrophysiologic Assessment of Calcium Channel Activity:
Patch-clamp recordings were performed using HEK293 cells stably expressing hCav3.2. Cells were plated in T175 flasks and grown at 37° C. and under 5% CO2 to approximately 50% confluency. On the day of the experiment, cells were harvested with Detachin™ cell detachment solution (Genlantis, San Diego, Calif.) and maintained in serum-free culture medium supplemented with 25 mM HEPES up to several hours prior to experiment. Whole-cell patch-clamp recordings were obtained using extracellular saline consisting of (mM): 87.5 CsCl, 40 TEA-Cl, 5 CaCl2, 1 MgCl2, 10 HEPES, 10 glucose. The pH was adjusted to 7.2 with CsOH and the osmolarity was adjusted to approximately 310 mOsm with sucrose. Intracellular solution consisted of (mM): 112 CsCl, 27 CsF, 2 NaCl, 8.2 EGTA, 10 HEPES. Prior to an experiment 4 mM Mg2ATP was added and the pH was adjusted to 7.2 with CsOH with an osmolarity of approximately 290 mOsm. A two-pulse voltage protocol was utilized to assess compound inhibition. First, cells were held with an 8 s pre-pulse at −100 mV prior to a 160 ms test pulse to −30 mV. This was followed by an 8 s pre-pulse at approximately −75 mV prior to a […]. Increasing concentrations of antagonist were applied to individual cells in a multi-addition format with 5 minutes in each test concentration. For each cell, responses were normalized to dimethyl sulfoxide vehicle control to generate concentration-response curves.

SMILES | IC50
O=C(c1cccc(S(=O)(=O)Nc2ccc(C(F)(F)F)cc2)c1)N1CCN2CCC[C@@H]2C1 [Example 1, 3-[(8aR)-hexahydropyrrolo[1,2-a]pyrazin-2(1H)-ylcarbonyl]-N-[4-(trifluoromethyl)phenyl]benzenesulfonamide] | > 10 µM
O=C(c1cccc(S(=O)(=O)Nc2c(F)cccc2F)c1)N1CCN2CCC[C@H]2C1 [Example 4, N-(2,6-difluorophenyl)-3-[(8aS)-hexahydropyrrolo[1,2-a]pyrazin-2(1H)-ylcarbonyl]benzenesulfonamide] | 7.7 µM
O=C(c1cccc(S(=O)(=O)Nc2cccc(F)c2)c1)N1CCN2CCC[C@@H]2C1 [Example 7, N-(3-fluorophenyl)-3-[(8aR)-hexahydropyrrolo[1,2-a]pyrazin-2(1H)-ylcarbonyl]benzenesulfonamide] | 6.5 µM
O=C(c1cccc(S(=O)(=O)Nc2ccccc2Cl)c1)N1CCN2CCC[C@@H]2C1 [Example 9, N-(2-chlorophenyl)-3-[(8aR)-hexahydropyrrolo[1,2-a]pyrazin-2(1H)-ylcarbonyl]benzenesulfonamide] | 7.3 µM
O=C(c1cccc(S(=O)(=O)Nc2cccc(F)c2F)c1)N1CCN2CCC[C@H]2C1 [Example 11, N-(2,3-difluorophenyl)-3-[(8aS)-hexahydropyrrolo[1,2-a]pyrazin-2(1H)-ylcarbonyl]benzenesulfonamide] | 6.6 µM
O=C(c1cccc(S(=O)(=O)Nc2cc(F)ccc2F)c1)N1CCN2CCC[C@@H]2C1 [Example 15, N-(2,5-difluorophenyl)-3-[(8aR)-hexahydropyrrolo[1,2-a]pyrazin-2(1H)-ylcarbonyl]benzenesulfonamide] | > 10 µM
O=C(c1cccc(S(=O)(=O)Nc2ccccc2F)c1)N1CCN2CCC[C@H]2C1 [Example 17, N-(2-fluorophenyl)-3-[(8aS)-hexahydropyrrolo[1,2-a]pyrazin-2(1H)-ylcarbonyl]benzenesulfonamide] | > 10 µM

Compounds with a lower IC50, results first:

IC50 | SMILES
6 µM | O=C(c1cccc(S(=O)(=O)Nc2ccc(F)cc2F)c1)N1CCN2CCC[C@H]2C1 [Example 16, N-(2,4-difluorophenyl)-3-[(8aS)-hexahydropyrrolo[1,2-a]pyrazin-2(1H)-ylcarbonyl]benzenesulfonamide]
4.7 µM | O=C(c1cccc(S(=O)(=O)Nc2cc(F)ccc2F)c1)N1CCN2CCC[C@H]2C1 [Example 12, N-(2,5-difluorophenyl)-3-[(8aS)-hexahydropyrrolo[1,2-a]pyrazin-2(1H)-ylcarbonyl]benzenesulfonamide]
3.7 µM | O=C(c1cccc(S(=O)(=O)Nc2cccc(F)c2F)c1)N1CCN2CCC[C@@H]2C1 [Example 14, N-(2,3-difluorophenyl)-3-[(8aR)-hexahydropyrrolo[1,2-a]pyrazin-2(1H)-ylcarbonyl]benzenesulfonamide]
2.1 µM | O=C(c1cccc(S(=O)(=O)Nc2ccc(C(F)(F)F)cc2)c1)N1CCN2CCC[C@H]2C1 [Example 8, 3-[(8aS)-hexahydropyrrolo[1,2-a]pyrazin-2(1H)-ylcarbonyl]-N-[4-(trifluoromethyl)phenyl]benzenesulfonamide]
1.9 µM | O=C(c1cccc(S(=O)(=O)Nc2cccc(C(F)(F)F)c2)c1)N1CCN2CCC[C@H]2C1 [Example 6, 3-[(8aS)-hexahydropyrrolo[1,2-a]pyrazin-2(1H)-ylcarbonyl]-N-[3-(trifluoromethyl)phenyl]benzenesulfonamide]
1.8 µM | O=C(c1cccc(S(=O)(=O)Nc2ccc(F)cc2)c1)N1CCN2CCC[C@H]2C1 [Example 5, N-(4-fluorophenyl)-3-[(8aS)-hexahydropyrrolo[1,2-a]pyrazin-2(1H)-ylcarbonyl]benzenesulfonamide]
1.5 µM | O=C(c1cccc(S(=O)(=O)Nc2ccccc2Cl)c1)N1CCN2CCC[C@H]2C1 [Example 10, N-(2-chlorophenyl)-3-[(8aS)-hexahydropyrrolo[1,2-a]pyrazin-2(1H)-ylcarbonyl]benzenesulfonamide]
